This is an account of results in patent US20090291913A1, “FACTOR Xa INHIBITOR FORMULATION AND METHOD” (Bristol-Myers Squibb Company, priority 2005, published 2009).

Data set [1] is described as follows: aqueous solubility as a function of pH. It is filed as physicochemical.
Data set [2] in a line: solubility in substituted-β-cyclodextrin solution as a function of pH. It counts as physicochemical.
Setting [3] is: aqueous buffer, neutral form / free base, room temperature, pH 6.8.

As to `COc1ccc(-n2nc(C(N)=O)c3c2C(=O)N(c2ccc(N4CCCCC4=O)cc2)CC3)cc1` [Apixaban, 1-(4-methoxyphenyl)-7-oxo-6-[4-(2-oxo-1-piperidinyl)phenyl]-4,5,6,7-tetrahydro-1H-pyrazolo [3,4-c]pyridine-3-carboxamide], the solubility in data set [1] (setting [3]) was less than 1 µg/mL.

Turning to `CN(C)Cc1nccn1-c1ccc(NC(=O)c2cc(C(F)(F)F)nn2-c2ccc3onc(N)c3c2)c(F)c1.Cl` [razaxaban], in data set [2] (pH 4.5 versus higher pH's up to 11), the “solubility in the substituted-β-cyclodextrins” value is recorded as “same solubility”. Moreover, in data set [2] (pH lowered to between about 3 and about 4), the “solubility in substituted-β-cyclodextrin solution” value was “increase in solubility”. For the same compound, the solubility in data set [1] (setting [3]) is less than 1 µg/mL; in data set [1] (simulated gastric fluid, hydrochloride salt, normal gastric pH condition, pH of gastric medium ~1-2), roughly 3000 µg/mL. For the same compound, the “solubility on adjusting pH” value in data set [1] (pH adjusted within pH 3-11, needed level e.g. 2.5 mg/mL) was “could not be increased to the needed level”.
